Source: patent US8361780B2, “Biological system and assay for identifying modulators of tubulin ligases” (University of Georgia Research Foundation, Inc., priority 2005, dated 2013)

Experiments:
Tetrahymena = settings: cited from earlier work
[1] = system: cytoplasmic microtubules of wild-type Tetrahymena cells; assay: Stability of cell body microtubules against microtubule-destabilizing compounds, wild-type cells; type: cell-based, Tetrahymena thermophila; settings: nocodazole 40 μM, oryzalin 10 μM, 30 min
Procedure: (§1) Immunofluorescence and electron microscopy. GFP-Ttll6Ap-expressing cells were grown in SPP with 0.5 to 2.5 μg of CdCl2/ml for 2 to 4 h. For GFP-Ttll6Ap localization, a 10-μl drop of cells was placed on a coverslip, followed by the addition of 20 μl of 2% paraformaldehyde in PHEM buffer (Schliwa and van Blerkom. 1981. J. Cell Biol. 90:222-235) and, after 20 s, the addition of 10 μl of 0.5% Triton X-100 in PHEM. The cells were subjected to immunofluorescence (Janke et al., 2005. Science 308:1758-1762) with the following primary antibodies: 12G10, an anti-α-tubulin monoclonal antibody (MAb) (Jerka-Dziadosz et al., 1995. Dev. Biol. 169:644-661) at 1:50; MAb ID5 (40), which in Tetrahymena is specific to polyglutamylated tubulin (Wloga et al., 2008. Eukaryot. Cell 7:1362-1372), at 1:50; poly(E) antipolyglutamic acid antibodies (1:100) (Shang et al., 2002. J. Cell Biol. 158:1195-1206); TAP952, an anti-monoglycylated tubulin MAb (1:5,000) (Bré et al., 1998. Mol. Biol. Cell 9:2655-2665; Callen et al., 1994. Biol. Cell 81:95-119); and 6-11 B-1, an anti-acetyl-K40 α-tubulin MAb (1:200) (LeDizet and Piperno. 1991.

[2] = system: cell body microtubules of GFP-Ttll6Ap-overexpressing Tetrahymena cells; assay: Stability of cell body microtubules against microtubule-destabilizing compounds, GFP-Ttll6Ap-overexpressing cells; type: cell-based, Tetrahymena thermophila; settings: nocodazole 40 μM, oryzalin 10 μM, 30 min
Procedure: as §1

[3] = system: wild-type Tetrahymena cells; assay: Axoneme/cilium length in paclitaxel-treated wild-type cells (immunofluorescence); type: cell-based, Tetrahymena thermophila
Procedure: as §1, with “1991. Methods Enzymol. 196:264-274). The secondary goat antibodies were as follows: anti-mouse-FITC, anti-mouse-Cy3, anti-rabbit-Cy3, and anti-rabbit-Cy5 (Zymed) at 1:200 dilutions. Cells were viewed under either Leica TCS SP or Zeiss LSM 510 VIS/META confocal microscopes. […] Confocal images were recorded with a 0.8-μm distance between z-sections, and sets of two to four z-sections were merged. The lengths of the cilia were measured by using ImageJ 1.37. […]” for “1991.”
(§2) Immunofluorescence and Electron Microscopy of Tetrahymena. Immuno-fluorescence was done as previously described (Wloga et al., 2006. Mol. Biol. Cell 17, 2799-2810) and quantified using mixed mutant and WT cells (fed with India ink) imaged side by side. The average pixel intensity was determined for sections of axonemes from the base to below the tip using ImageJ. […] After washing, cells were dehydrated in an ethanol series, embedded in Epon, sectioned, and analyzed in a JEM 1210 electron microscope.

[4] = system: GFP-Ttll6Ap-overproducing Tetrahymena cells; assay: Cilium length in paclitaxel-treated GFP-Ttll6Ap-overproducing cells (immunofluorescence); type: cell-based, Tetrahymena thermophila; settings: 40 μM paclitaxel for 3 h
Procedure: as §1, with “1991. Methods Enzymol. 196:264-274). The secondary goat antibodies were as follows: anti-mouse-FITC, anti-mouse-Cy3, anti-rabbit-Cy3, and anti-rabbit-Cy5 (Zymed) at 1:200 dilutions. Cells were viewed under either Leica TCS SP or Zeiss LSM 510 VIS/META confocal microscopes. To measure the length of the cilia, the cells were labeled with MAb 12G10, [and, in some experiments, double labeled with poly(E) antibodies]. Confocal images were recorded with a 0.8-μm distance between z-sections, and sets of two to four z-sections were merged. The lengths of the cilia were measured by using ImageJ 1.37. For transmission electron microscopy (TEM), the cells were prepared as described previously (Jerka-Dziadosz et al., 2001. Protist 152:53-67).” for “1991.”

3AB-KO Tetrahymena cells = assay: Axoneme elongation by paclitaxel in 3AB-KO cells (immunofluorescence); type: cell-based, Tetrahymena thermophila; settings: 25 μM paclitaxel for 4 hr
Procedure: Cultures. Tetrahymena thermophila cells were grown in SPP medium. To determine the growth rate, cells were diluted to 10^4 cells/ml and grown in 10 ml of SPP in 150 ml flasks. In some experiments, paclitaxel (LC Laboratories, Woburn, Mass.) was added to the SPP medium. WT in Kalkutta and Tupfel longfin (commonly known as “WIK” and “TL”, respectively) zebrafish were raised at 28° C. at 14 hr light/10 hr dark cycle. The embryos were cultured in egg water at 28° C.
as §2, with “ImageJ. TEM was performed as previously described (Jerka-Dziadosz et al., 2001. Protist 152, 53-67). For immunoelectron TEM, cells were fixed as for immunofluorescence, reacted with anti-GFP antibodies (1:1000; Abcam) in 3% bovine serum albumin (BSA) in the PHEM buffer with 0.1% Tween-20 for 2 hr, followed by anti-rabbit IgG-10 nm gold antibodies (GE Healthcare) at 1:60 in 3% BSA in PBS for 1.5 hr.” for “ImageJ.”

zebrafish embryos [5] = assay: Tubulin monoglycylation in cilia of zebrafish embryos (TAP952 immunofluorescence); type: in vivo
From the text: (§3) MO Knockdowns in Zebrafish Embryos. TTLL3-ATG MO (5′ […] 3′; SEQ ID NO:129) and TTLL3-SP MO (5′ […] 3; SEQ ID NO:130) were obtained from Open Biosystems (Huntsville, AL). TTLL3-ATG targets the translation initiation site of ttll3 mRNA. TTLL3-SP is predicted to prevent splicing of exon 11 and cause a frame shift in exon 12. This would eliminate the coding sequence downstream of exon 10, which includes a conserved catalytic domain-encoding region. To evaluate the effect of TTLL3-SP on ttll3 mRNA, total RNA was isolated with TRIzol reagent (Invitrogen, Inc., Carlsbad, Calif.) from embryos at 7 hpf: 50 uninjected control embryos, 40 embryos injected with 3 ng TTLL3-SP MO, or 30 embryos injected with 5 ng TTLL3-SP MO. Total RNA ([…]) was used as a template for cDNA synthesis with random hexamers and oligo-dT primers and the iScript TM cDNA synthesis kit (Bio-Rad Laboratories, Hercules, Calif.). cDNA ([…]) was amplified with the following primers spanning exon 11: TTLL3-splice F, 5′-[…]-3′ (exon 10; SEQ ID NO:131); TTLL3-splice R, 5′-[…]-3′ (exon 12; SEQ ID NO:132). As expected, primers flanking exon 11 produced a shorter product in RT-PCR from embryos injected with TTLL3-SP than in controls (FIG. 50D). […] As a negative control, we injected 25 base MOs with a random base mixture at each position (Gene Tools, Inc., Philomath, Oreg.).
(§4) Microscopy of Zebrafish. For whole-mount, in situ hybridization, embryos were fixed as previously described (Hagos and Dougan, 2007), stored in 100% methanol at −20° C., and stained with spaw, lefty1, lefty2, and cmlc2 probes (Yelon, 2001). Embryos were photographed under differential interference contrast with a Zeiss Axioplan 2 microscope with Slidebook (Intelligent Imaging Innovations, Denver, Colo.). For immunofluorescence, the embryos were manually dechorionated and fixed with 0.5% Triton X-100 and 4% paraformaldehyde in PBT (0.1% Tween-20 in PBS) at 4° C. overnight. After washing with PBT, embryos were dehydrated in methanol/PBT series and incubated overnight in 100% methanol at −20° C. After rehydration, embryos were blocked for 1-2 hr in 2% BSA, 0.5% normal goat serum,l%DMSO, 0.5% Triton X-100 in PBS, and incubated overnight at 4° C. with one of the following antibodies: 6-11 B-1 (1:1000); TAP952 (1:2000); AXO49 (1:2000); and GT335 (1:1000); polyE (1:500). After washing 3×10 min with 0.5% Triton X-100 in PBS, embryos were incubated overnight at 4° C. in anti-mouse-IgG-FITC or anti-rabbit-IgG-Cy3 (1:500; Zymed), washed (3×10 min), mounted in 100 mg/ml of DABCO (Sigma-Aldrich) in PBS, and examined on a Leica TCS SP confocal microscope.

zebrafish embryos [6] = assay: Morphology of zebrafish morphant embryos; settings: in vivo
From the text: as §3

zebrafish embryos [7] = assay: Heart position in zebrafish embryos, scoring live embryos; type: in vivo
From the text: as §3

zebrafish embryos [8] = assay: Heart position in zebrafish embryos, in situ hybridization; type: in vivo
From the text: as §3, §4

zebrafish embryos [9] = assay: Expression pattern of lefty2 in zebrafish embryos (in situ hybridization); type: in vivo
From the text: as §3, §4

zebrafish embryos [10] = assay: Expression pattern of southpaw in zebrafish embryos (in situ hybridization); type: in vivo
From the text: as §3, §4

[11] = GFP-Ttll6Ap-overexpressing cells

Molecule: C[S+](C)[O-] [DMSO]
- concentration tolerated well (Tetrahymena): up to 2.5%

Molecule: COC(=O)Nc1nc2ccc(C(=O)c3cccs3)cc2[nH]1 [nocodazole]
- effect on cytoplasmic microtubules [1]: rapid depolymerization of cytoplasmic microtubules
- effect on cell body microtubules [2]: retained abundant cell body microtubules

Molecule: CC(=O)O[C@H]1C(=O)[C@@]2(C)[C@H]([C@H](OC(=O)c3ccccc3)[C@]3(O)C[C@H](OC(=O)[C@H](O)[C@@H](NC(=O)c4ccccc4)c4ccccc4)C(C)=C1C3(C)C)[C@]1(OC(C)=O)CO[C@@H]1C[C@@H]2O [paclitaxel]
- effect on axonemes ([3]; 25 μM paclitaxel for 4 hr): remarkable elongation of axonemes
- increase of the average axoneme length ([3]; 40 μM paclitaxel for 3 h): 20%
- axoneme length after treatment ([3]; 40 μM paclitaxel for 3 h, n=173): 6.05±1.12 μm
- elongation of preexisting cilia [4, 11]: 22%
- length of preexisting cilia, paclitaxel treated [4, 11]: 6.39±0.82 μm
- length of assembling cilia, paclitaxel treated ([4]; GFP-Ttll6Ap-overproducing cells): 2.7±0.6 μm
- change of length of assembling cilia ([4]; GFP-Ttll6Ap-overproducing cells, vs no drug): 44%
- elongation of axonemes (3AB-KO Tetrahymena cells): not observed

Molecule: TTLL3-ATG-MO: antisense morpholino 5′ GTGTTGGTGCATGTTTGAGTTAACC 3′; targets the translation initiation site of ttll3 mRNA (all phosphorodiamidate morpholino (PMO))
- levels of tubulin monoglycylation/glycylation in cilia (zebrafish embryos [5]; 72 hpf, TTLL3-ATG MO 1 ng, TTLL3-SP MO 3 ng): greatly reduced
- morphants with TAP952 signal not detected in cilia of the distal part of pronephric duct (zebrafish embryos [5]; n=46): 98%
- morphants with TAP952 signal not detected in cilia of the medial part of pronephric duct (zebrafish embryos [5]; n=46): 61%
- morphants with TAP952 signal not detected in cilia of the spinal cord (zebrafish embryos [5]; n=46): 89%
- hydrocephalic morphants (zebrafish embryos [6]): 10%
- morphant embryos with curly tail (zebrafish embryos [6]): 76%
- heart position left, number of embryos (zebrafish embryos [7]): 56
- heart position left, percent of embryos (zebrafish embryos [7]): 50%
- heart position middle, number of embryos (zebrafish embryos [7]): 33
- heart position middle, percent of embryos (zebrafish embryos [7]): 29.5%
- heart position right, number of embryos (zebrafish embryos [7]): 23
- heart position right, percent of embryos (zebrafish embryos [7]): (20.5%)
- heart position left, number of embryos (zebrafish embryos [8]): 21
- heart position left, percent of embryos (zebrafish embryos [8]): 50%
- heart position middle, number of embryos (zebrafish embryos [8]): 7
- heart position middle, percent of embryos (zebrafish embryos [8]): 16.7%
- heart position right, number of embryos (zebrafish embryos [8]): 14
- heart position right, percent of embryos (zebrafish embryos [8]): (33.3%)
- lefty2 expression: Bilatera or midline, number of embryos (zebrafish embryos [9]): 5
- lefty2 expression: Bilatera or midline, percent of embryos (zebrafish embryos [9]): (11.9%)
- lefty2 expression: No specific signal, number of embryos (zebrafish embryos [9]): 8
- lefty2 expression: No specific signal, percent of embryos (zebrafish embryos [9]): (19%)
- lefty2 expression: left, number of embryos (zebrafish embryos [9]): 15
- lefty2 expression: left, percent of embryos (zebrafish embryos [9]): (35.7%)
- lefty2 expression: right, number of embryos (zebrafish embryos [9]): 14
- lefty2 expression: right, percent of embryos (zebrafish embryos [9]): (33.4%)
- southpaw expression: Bilatera or midline, number of embryos (zebrafish embryos [10]): 34
- southpaw expression: Bilatera or midline, percent of embryos (zebrafish embryos [10]): (43.7%)
- southpaw expression: No specific signal, number of embryos (zebrafish embryos [10]): 19
- southpaw expression: No specific signal, percent of embryos (zebrafish embryos [10]): (24.3%)
- southpaw expression: left, number of embryos (zebrafish embryos [10]): 14
- southpaw expression: left, percent of embryos (zebrafish embryos [10]): (17.9%)
- southpaw expression: right, number of embryos (zebrafish embryos [10]): 11
- southpaw expression: right, percent of embryos (zebrafish embryos [10]): (14.1%)
